EC50 data for 29 molecules are collected here from patent US10537558B2 (Bantam Pharmaceutical, LLC, priority 2015, dated 2020).

One may read the EC50 as the concentration that produces a half-maximal response.

The subject of this experiment is BJAB cells. Kind of experiment: BJAB cell proliferation (Cell Titer Glo). In kind it is cell-based. Conditions: Homo sapiens, read-out: EC50. In a few lines:
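EC50 values come from non-linear regression of luminescence (Cell Titer Glo), expressed relative to untreated wells. BJAB cells were incubated roughly 72 h at 37 °C with serial compound dilutions carrying 0.1% final DMSO.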
Take `Cc1nn(-c2nc(-c3ccc(Cl)c(C#N)c3)c(SC(C)C)s2)c(C(=O)O)c1-c1cccc(F)c1` [Compound 218, 1-(4-(4-chloro-3-cyanophenyl)-5-(isopropylthio)thiazol-2-yl)-4-(3-fluorophenyl)-3-methyl-1H-pyrazole-5-carboxylic Acid]: the EC50 was 5 to 10 µM.

For `Cc1nn(-c2nc(-c3ccc(C(F)(F)F)cc3)c(SC(C)C)s2)c(C(=O)O)c1-c1cc(Cl)cc(Cl)c1` [Compound 219, 4-(3,5-dichlorophenyl)-1-(5-(isopropylthio)-4-(4-(trifluoromethyl)phenyl)thiazol-2-yl)-3-methyl-1H-pyrazole-5-carboxylic Acid], the concentration for a half-maximal effect (EC50) is less than 1 µM.

As for `COCCNC(=O)c1ccc(-c2nc(-n3nc(C)c(-c4cccc(F)c4)c3C(=O)O)sc2SC(C)C)cc1` [Compound 220, 4-(3-fluorophenyl)-1-(5-(isopropylthio)-4-(4-((2-methoxyethyl)carbamoyl)phenyl)thiazol-2-yl)-3-methyl-1H-pyrazole-5-carboxylic Acid], the concentration giving a half-maximal response (EC50) was greater than 40 µM.

`Cc1nn(-c2nc(-c3ccc(C(=O)N(C)C)cc3)c(SC(C)C)s2)c(C(=O)O)c1-c1cccc(F)c1` [Compound 221, 1-(4-(4-(dimethylcarbamoyl)phenyl)-5-(isopropylthio)thiazol-2-yl)-4-(3-fluorophenyl)-3-methyl-1H-pyrazole-5-carboxylic acid]: the EC50 was greater than 40 µM.

For `Cc1cc(OC(F)(F)F)ccc1-c1nc(-n2nc(C)c(-c3cccc(F)c3)c2C(=O)O)sc1SC(C)C` [Compound 224, 4-(3-fluorophenyl)-1-(5-(isopropylthio)-4-(2-methyl-4-(trifluoromethoxy)phenyl)thiazol-2-yl)-3-methyl-1H-pyrazole-5-carboxylic acid], the EC50 is less than 1 µM.

Take `Cc1nn(-c2nc(-c3ccc(Cl)c(Cl)c3)c(SC(C)C)s2)c(C(=O)O)c1-c1cc(F)cc(Cl)c1` [Compound 225, 4-(3-chloro-5-fluorophenyl)-1-(4-(3,4-dichlorophenyl)-5-(isopropylthio)thiazol-2-yl)-3-methyl-1H-pyrazole-5-carboxylic acid]: the EC50 is less than 1 µM.

For `Cc1cc(-c2nc(-n3nc(C)c(-c4cccc(F)c4)c3C(=O)O)sc2SC(C)C)ccc1C#N` [Compound 226, 1-(4-(4-cyano-3-methylphenyl)-5-(isopropylthio)thiazol-2-yl)-4-(3-fluorophenyl)-3-methyl-1H-pyrazole-5-carboxylic acid], the concentration for a half-maximal effect (EC50) fell in the range of 5 to 10 µM.

In the case of `Cc1nn(-c2nc(-c3ccc(Cl)c(Cl)c3)c(F)s2)c(C(=O)O)c1-c1cccc(F)c1` [Compound 227, 1-(4-(3,4-dichlorophenyl)-5-fluorothiazol-2-yl)-4-(3-fluorophenyl)-3-methyl-1H-pyrazole-5-carboxylic acid], the EC50 lay in the range of 10 to 25 µM.

As for `CC(C)Sc1sc(-n2nc(C(C)C)c(-c3cccc(F)c3)c2C(=O)O)nc1-c1ccc(Cl)c(Cl)c1` [Compound 228, 1-(4-(3,4-dichlorophenyl)-5-(isopropylthio)thiazol-2-yl)-4-(3-fluorophenyl)-3-isopropyl-1H-pyrazole-5-carboxylic Acid], the EC50 is 1 to 5 µM.

As to `Cc1nn(-c2nc(-c3ccc(C(F)F)cc3)c(SC(C)C)s2)c(C(=O)O)c1-c1cccc(F)c1` [Compound 229, 1-(4-(4-(difluoromethyl)phenyl)-5-(isopropylthio)thiazol-2-yl)-4-(3-fluorophenyl)-3-methyl-1H-pyrazole-5-carboxylic acid], the EC50 lay within 1 to 5 µM.

For `Cc1nn(-c2nc(-c3ccc(Cl)c(Cl)c3)c(OC(C)C)s2)c(C(=O)O)c1-c1cccc(F)c1` [Compound 230, 1-(4-(3,4-dichlorophenyl)-5-isopropoxythiazol-2-yl)-4-(3-fluorophenyl)-3-methyl-1H-pyrazole-5-carboxylic acid], the concentration for a half-maximal effect (EC50) is 5 to 10 µM.

As for `CCc1ccc(-c2nc(-n3nc(C)c(-c4cccc(F)c4)c3C(=O)O)sc2SC(C)C)cc1` [Compound 231, 1-(4-(4-ethylphenyl)-5-(isopropylthio)thiazol-2-yl)-4-(3-fluorophenyl)-3-methyl-1H-pyrazole-5-carboxylic Acid], the 50% effective concentration (EC50) lay within 1 to 5 µM.

`Cc1cc(-c2c(C)nn(-c3nc(-c4ccc(C(F)(F)F)cc4)c(SC(C)C)s3)c2C)cc(C)n1` [Compound 232, 2-(4-(2,6-dimethylpyridin-4-yl)-3,5-dimethyl-1H-pyrazol-1-yl)-5-(isopropylthio)-4-(4-(trifluoromethyl)phenyl) thiazole]: the EC50 lay in the range of 25 to 50 µM.

In the case of `Cc1nn(-c2nc(-c3cncc(F)c3)c(SC(C)C)s2)c(C(=O)O)c1-c1cccc(F)c1` [Compound 233, 4-(3-fluorophenyl)-1-(4-(5-fluoropyridin-3-yl)-5-(isopropylthio)thiazol-2-yl)-3-methyl-1H-pyrazole-5-carboxylic Acid], the EC50 is greater than 40 µM.

In the case of `Cc1nn(-c2nc(-c3coc4ccccc34)c(SC(C)C)s2)c(C(=O)O)c1-c1cccc(F)c1` [Compound 234, 1-(4-(benzofuran-3-yl)-5-(isopropylthio)thiazol-2-yl)-4-(3-fluorophenyl)-3-methyl-1H-pyrazole-5-carboxylic Acid], the EC50 was greater than 40 µM.

For `Cc1nn(-c2nc(-c3ccc(C(F)(F)F)cc3)c(SC(C)C)s2)c(C(=O)O)c1-c1ccc(F)c(F)c1` [Compound 235, 4-(3,4-difluorophenyl)-1-(5-(isopropylthio)-4-(4-(trifluoromethyl)phenyl)thiazol-2-yl)-3-methyl-1H-pyrazole-5-carboxylic acid], the EC50 is less than 1 µM.

On to `Cc1cc(-c2c(C)nn(-c3nc(-c4ccc(C(F)(F)F)cc4)c(SC(C)C)s3)c2C(=O)O)ccc1F` [Compound 236, 4-(4-fluoro-3-methylphenyl)-1-(5-(isopropylthio)-4-(4-(trifluoromethyl)phenyl)thiazol-2-yl)-3-methyl-1H-pyrazole-5-carboxylic Acid], for which the EC50 fell in the range of 1 to 5 µM.

As for `Cc1nn(-c2nc(-c3ccc(C(F)(F)F)cc3)c(SC(C)C)s2)c(C(=O)O)c1-c1ccc(F)cc1` [Compound 237, 4-(4-fluorophenyl)-1-(5-(isopropylthio)-4-(4-(trifluoromethyl)phenyl)thiazol-2-yl)-3-methyl-1H-pyrazole-5-carboxylic acid], the EC50 lay in the range of 1 to 5 µM.

As to `COc1cc(-c2c(C)nn(-c3nc(-c4ccc(C(F)(F)F)cc4)c(SC(C)C)s3)c2C(=O)O)ccc1F` [Compound 238, 4-(4-fluoro-3-methoxyphenyl)-1-(5-(isopropylthio)-4-(4-(trifluoromethyl)phenyl)thiazol-2-yl)-3-methyl-1H-pyrazole-5-carboxylic acid], the EC50 was 1 to 5 µM.

On to `Cc1cc(Cl)cc(C)c1-c1nc(-n2nc(C)c(-c3cccc(F)c3)c2C(=O)O)sc1SC(C)C` [Compound 239, 1-(4-(4-chloro-2,6-dimethylphenyl)-5-(isopropylthio)thiazol-2-yl)-4-(3-fluorophenyl)-3-methyl-1H-pyrazole-5-carboxylic Acid], for which the half-maximal effective concentration (EC50) was 5 to 10 µM.

With `Cc1nn(-c2nc(-c3ccc(C(C)(F)F)cc3)c(SC(C)C)s2)c(C(=O)O)c1-c1cccc(F)c1` [Compound 240, 1-(4-(4-(1,1-difluoroethyl)phenyl)-5-(isopropylthio)thiazol-2-yl)-4-(3-fluorophenyl)-3-methyl-1H-pyrazole-5-carboxylic acid], the 50% effective concentration (EC50) was in the range of 1 to 5 µM.

In the case of `Cc1cc(-c2c(C)nn(-c3nc(-c4ccc(C(F)(F)F)cc4)c(SC(C)C)s3)c2C(=O)O)cc(C)c1F` [Compound 241, 4-(4-fluoro-3,5-dimethylphenyl)-1-(5-(isopropylthio)-4-(4-(trifluoromethyl)phenyl)thiazol-2-yl)-3-methyl-1H-pyrazole-5-carboxylic acid], the EC50 is less than 1 µM.

Take `Cc1nn(-c2nc(-c3cnc(C(F)(F)F)nc3)c(SC(C)C)s2)c(C(=O)O)c1-c1cccc(F)c1` [Compound 242, 4-(3-fluorophenyl)-1-(5-(isopropylthio)-4-(2-(trifluoromethyl)pyrimidin-5-yl)thiazol-2-yl)-3-methyl-1H-pyrazole-5-carboxylic Acid]: the concentration giving a half-maximal response (EC50) is 5 to 10 µM.

Consider `CCNC(=O)c1cc(-c2nc(-n3nc(C)c(-c4cccc(F)c4)c3C(=O)O)sc2SC(C)C)ccc1Cl` [Compound 243, 1-(4-(4-chloro-3-(ethylcarbamoyl)phenyl)-5-(isopropylthio)thiazol-2-yl)-4-(3-fluorophenyl)-3-methyl-1H-pyrazole-5-carboxylic Acid], for which the concentration for a half-maximal effect (EC50) is greater than 40 µM.

Consider `Cc1nn(-c2nc(-c3ccc(C(F)(F)F)cc3N)c(SC(C)C)s2)c(C(=O)O)c1-c1cccc(F)c1` [Compound 244, 1-(4-(2-amino-4-(trifluoromethyl)phenyl)-5-(isopropylthio)thiazol-2-yl)-4-(3-fluorophenyl)-3-methyl-1H-pyrazole-5-carboxylic Acid], for which the EC50 was in the range of 1 to 5 µM.

Turning to `Cc1nn(-c2nc(C#Cc3ccc(C(F)(F)F)cc3)c(SC(C)C)s2)c(C(=O)O)c1-c1cccc(F)c1` [Compound 245, 4-(3-fluorophenyl)-1-(5-(isopropylthio)-4-((4-(trifluoromethyl)phenyl)ethynyl)thiazol-2-yl)-3-methyl-1H-pyrazole-5-carboxylic acid], the half-maximal effective concentration (EC50) lay in the range of 10 to 25 µM.

In the case of `Cc1nn(-c2nc(-c3ncc(C(F)(F)F)cn3)c(SC(C)C)s2)c(C(=O)O)c1-c1cccc(F)c1` [Compound 246, 4-(3-fluorophenyl)-1-(5-(isopropylthio)-4-(5-(trifluoromethyl)pyrimidin-2-yl)thiazol-2-yl)-3-methyl-1H-pyrazole-5-carboxylic Acid], the EC50 lay in the range of 10 to 25 µM.

On to `Cc1nn(-c2nc(-c3ccc(C(F)(F)F)cc3)cs2)c(C(=O)O)c1-c1cccc(F)c1` [Compound 247, 4-(3-fluorophenyl)-3-methyl-1-(4-(4-(trifluoromethyl)phenyl)thiazol-2-yl)-1H-pyrazole-5-carboxylic acid], for which the EC50 is 10 to 25 µM.

`COCCN(C)C(=O)c1c(-c2cccc(F)c2)c(C)nn1-c1nc(-c2ccc(C(F)(F)F)cc2)c(SC(C)C)s1` [Compound 248, 4-(3-fluorophenyl)-1-(5-(isopropylthio)-4-(4-(trifluoromethyl)phenyl)thiazol-2-yl)-N-(2-methoxyethyl)-N,3-dimethyl-1H-pyrazole-5-carboxamide]: the EC50 was greater than 20 µM.
